These results are taken from patent US12582672B2, “Vanadium compositions and methods for treatment of cancer” (THE BROAD INSTITUTE, INC., priority 2018, dated 2026).

“Also recorded” adds a separate entry of the source.

The test system of one test is 578 cancer cell lines. Kind of test: PRISM multiplexed cellular viability assay. It is filed as cell-based. The conditions noted are these: for prediction of cell line sensitivity by SLC26A2 expression: more than 4,000 compounds profiled against 578 cancer cell lines. The protocol: Parental cell lines were obtained from the Cancer Cell Line Encyclopedia (CCLE) project (1). PRISM cell line barcoding, pooling, and screening was performed as previously described with several improvements to the original method (2). First, the lentiviral vector was modified to encode the unique barcode identifier at the end of the puromycin resistance gene. This enables barcodes to be detected using a variant of the mRNA capture and Luminex detection method developed for the L1000 gene expression assay (3). Second, a set of ten inert barcodes were spiked-in to each well of each plate after cell lysis to control for variation in PCR amplification as detailed below.
Luminex technology produced .Ixb files containing data for each Luminex bead observed during detection. These .Ixb files were processed to compute Median Fluorescence Intensity (MFI) values, calculated as the median of the values obtained for all beads corresponding to a single PRISM barcode.
MFI values were log-transformed (logMFI) and used to perform basic quality control. To detect probable screening artifacts, logMFI values were centered to the median logMFI for each cell line on each plate in order to put the measurements from each cell line on the same scale. For each well on each plate, the median of these centered values was then standardized according to the global median and global MAD across all plate wells in the same position. Data from wells with a standardized score of greater than 5 or less than −5 were excluded from all further processing steps.
For each cell line on each plate, the distribution of MFI values observed for the DMSO-treated negative controls was compared to that of the positive controls using a robust form of the Strictly Standardized Mean Difference (SSMD*)′. Specifically, SSMD* was calculated as: […]
Data corresponding to SSMD values less than 2 were removed before calculating cell viability.
The data in the instant disclosure were produced according to two different screening protocols. In the PR500 protocol, ten inert barcodes were spiked-in to each well of each plate after cell lysis. For data produced using the PR500 protocol, normalized MFI (nMFI) values were computed by taking the ratio of each MFI value against the median of the inert barcodes within each well. For data produced before the PR500 protocol was introduced, nMFI values were set equal to MFI values.
Cell viability was calculated as the ratio of nMFI to the median of the nMFI from the DMSO-treated negative controls for each cell line on each plate. Batch effects produced from variable detection and assay conditions were then removed using ComBat (4). The final viability values were calculated as the median of the batch-corrected cell viabilities from biological replicates for each cell line, compound and dose.
Measures of dose response were obtained by fitting 3-parameter logistic curves to viability values for each compound and cell line using the R package ‘drc’. Following the practice of Smirnov and Safikhani (5), viability was truncated at 1.0 and fit as a function of drug concentration according to:
[formula] where all concentrations are in the natural logarithm scale. IC50 values were defined as the concentration c at which V(c)=0.5, given by the formula:
[formula] The Area Under the dose response Curve (AUC) was calculated using the normalized integral: […]
The formulation above puts AUC values on a scale between 0 and 1, where lower AUC values indicate increased sensitivity to the treatment.

For test [1] the following is noted: diabetic rats; cited from earlier work.
Test [2] relates to SLC26A2 knockouts in A375, OVISE, and A2058 cell lines. Put plainly: CellTiter-Glo cellular viability assay in CRISPR-Cas9 SLC26A2 knockout cell lines. The class given is cell-based. Conditions: FIGS. 7A-7C. The source says: XP003, XP023, psPAX, and pMD2.G vectors were acquired from the Broad Genetic Perturbation Platform (GPP). Oligos for sgRNAs designs were generated using Broad GPP sgRNA guide generator resource (on the World Wide Web at (www)broad institute.org/gpp/db/analvsis-tools/sgrna-design) and the respective oligos were synthesized by Integrated DNA Technologies. In order to clone the sgRNAs into either the XPR003 guide only or XPRO23 all-in-one crispr lentiviral expression systems the protocol available on the Broad GPP website (www.broadinstitute.org/gpp/db/resources/protocols) was followed.
In order to generate viral vectors, HEK293T cells were seeded in 6 well plates at a density of 1.5E6 cells per well. Cells were then transfected with a mixture of TranslT@-LT1 Transfection Reagent (MirusBio #M1R2304), psPAX2, pMD2.G, lentiviral plasmid diluted in Opti-MEM™ (Thermo #31985062). The following day media was changed DMEM (Thermo #10566016) with 30% FBS (Sigma 18A079). 72 hrs after transfection, virus containing media was collected and run through a 0.2 uM filter to remove cellular debris. Virus was aliquoted and stored short term at −20 C until infection day. […]
Cell viability was assayed using a modified manufacturer's protocol for CellTiter-Glo® (Promega #G7573). […] Luminescence was measured with an integration time of 0.1 s using Envision Microplates Reader (PERKIN ELMER #2105-0010). […]

Test [3] concerns the target T1, protein tyrosine phosphatase-1B (PTP-1B) (Homo sapiens, UniProt P18031).
T1 sequence (P18031 1-435): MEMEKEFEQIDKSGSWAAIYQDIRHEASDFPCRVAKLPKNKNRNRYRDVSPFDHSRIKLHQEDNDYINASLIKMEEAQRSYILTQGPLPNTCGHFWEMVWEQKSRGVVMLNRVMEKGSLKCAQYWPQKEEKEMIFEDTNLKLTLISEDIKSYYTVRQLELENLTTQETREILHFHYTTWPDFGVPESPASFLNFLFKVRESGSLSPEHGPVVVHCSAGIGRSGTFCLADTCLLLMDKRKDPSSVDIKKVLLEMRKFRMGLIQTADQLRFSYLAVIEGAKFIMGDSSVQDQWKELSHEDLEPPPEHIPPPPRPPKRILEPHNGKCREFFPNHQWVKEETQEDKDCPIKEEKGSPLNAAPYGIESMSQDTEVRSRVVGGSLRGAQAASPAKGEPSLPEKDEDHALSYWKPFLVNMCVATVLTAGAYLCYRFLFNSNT
Conditions: cited from earlier work.

For the compound `CCc1occc(=O)c1[O][V](=[O])[O]c1c(CC)occc1=O` [BEOV, bis(ethylmaltolato)oxovanadium(IV)], the “prediction of cell line sensitivity by SLC26A2 expression” value (shortened to “prediction of cell line sensitivity”) with 578 cancer cell lines was “high SLC26A2 transcriptional target gene expression predicted cell line sensitivity”.
`CC(C)c1occc(=O)c1[O][V](=[O])[O]c1c(C(C)C)occc1=O` [BIOV, bis(isopropylmaltolato)oxovanadium(IV)]: in the test with 578 cancer cell lines, the “prediction of cell line sensitivity” value is “high SLC26A2 transcriptional target gene expression predicted cell line sensitivity”.
On the same count and under the same terms, as for `CCCCc1occc(=O)c1[O][V](=[O])[O]c1c(CCCC)occc1=O` [BnBOV, bis(n-butylmaltolato)oxovanadium(IV)], the entry is “high SLC26A2 transcriptional target gene expression predicted cell line sensitivity”.
As for `Cc1occc(=O)c1[O][V](=[O])[O]c1c(C)occc1=O` [BMOV, bis(maltolato)oxovanadium(IV)], the “glycaemia and insulin levels” value in test [1] is listed as “restore normoglycaemia without rising insulin levels”. Besides, the “effect of SLC26A2 knockout on BMOV sensitivity (percent viability curves)” value in test [2] is on record as “SLC26A2 knockouts rescue BMOV sensitivity”. Besides, in the test on 578 cancer cell lines (SLC26A2-high versus lower SLC26A2 expression cell lines), the “selective killing of cancer cell lines” value is “selective killing of SLC26A2-high cancer cell lines; also recorded: selectively kills ovarian cancer cells, bone cancer cells, and melanoma cells”. Moreover, the “prediction of cell line sensitivity” value in the test on 578 cancer cell lines is “high SLC26A2 transcriptional target gene expression predicted cell line sensitivity”. The phosphatase inhibition entry in test [3] is “potent phosphatase inhibitor”.
